We go through 20 molecules from the supplement of paper PMC11368000.

The structures appear in SMILES notation.

One assay has as its system 1309 (donor line of iPSC-derived cardiomyocytes). The assay is described as follows: POD (EC05) for decrease in beat frequency (negative chronotrope) vs vehicle; higher = less potent (higher point of departure). The conditions noted are these: exposure time: 90 min. The method in brief:
(§1)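 Ca2+ flux in human iPSC-derived cardiomyocytes from 16 donors was recorded on a FLIPR Tetra for 100 s before and after a 90 min exposure at 37 °C to 0.1, 1, 10 and 100 µM (final, 0.5% DMSO). Donor-specific points of departure came from hierarchical Bayesian Hill fits to vehicle-normalised beat frequency, decay-to-rise ratio or peak frequency. A 5% change served as threshold, except for peak frequency, where it was a 95% loss.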
As for `NC(=O)C(F)(F)C(F)(F)C(F)(F)C(F)F`, the POD vs vehicle was greater than 100 µM.
`OCC(O)CC(F)(F)C(F)(F)C(F)(F)C(F)(F)C(F)(F)C(F)(F)C(F)(F)C(F)(F)F` (stereo not drawn) [1-(Perfluorofluorooctyl)propane-2,3-diol]: the POD vs vehicle is greater than 100 µM.
Turning to `CC(O)C(F)(F)C(F)(F)F` (stereo not drawn) [1-Pentafluoroethylethanol], the POD vs vehicle is greater than 100 µM.
As to `OCC(F)(F)C(F)(F)C(F)(F)C(F)F` [1H,1H,5H-Perfluoropentanol], the POD vs vehicle was greater than 100 µM.
`O=S(=O)(OCC(F)(F)F)C(F)(F)C(F)(F)C(F)(F)C(F)(F)F` [2,2,2-Trifluoroethyl_perfluorobutanesulfonate]: the POD vs vehicle was greater than 100 µM.
`O=C(O)C(F)(F)C(F)(F)C(F)F` [2,2,3,3,4,4-Hexafluorobutanoic_acid] came in with a POD vs vehicle greater than 100 µM.
Consider `NC(O)(C(F)(F)F)C(F)(F)F` [2-Aminohexafluoropropan-2-ol], for which the POD vs vehicle was greater than 100 µM.
`O=C(O)CCC(F)(F)C(F)(F)C(F)(F)C(F)(F)C(F)(F)F` [2H,2H,3H,3H-Perfluorooctanoic_acid] came in with a POD vs vehicle of 37.7 µM.
Same read-out and setting: next, `O=C(O)C=C(C(F)(F)F)C(F)(F)F` [3,3-Bis(trifluoromethyl)-2-propenoic_acid]: greater than 100 µM; `O=C(O)C=CC(F)(C(F)(F)F)C(F)(F)F` [3-(Perfluoroisopropyl)-2-propenoic_acid]: greater than 100 µM; `O=C(O)CCC(F)(F)C(F)(F)C(F)(F)C(F)(F)C(F)(F)C(F)(F)C(F)(F)F` [3-Perfluoroheptylpropanoic_acid]: greater than 100 µM.
Molecule `O=C(O)CCC(F)(F)C(F)(F)C(F)(F)F` [3:3 Fluorotelomer carboxylic acid] gave a POD vs vehicle greater than 100 µM.
`O=C(CC(=O)C(F)(F)C(F)(F)F)C(F)(F)F` [3H,3H-Perfluoro-2,4-hexanedione] yielded a POD vs vehicle greater than 100 µM.
`OCCC(F)(F)C(F)(F)C(F)(F)C(F)(F)F` [4:2 Fluorotelomer alcohol]: the POD vs vehicle is greater than 100 µM.
The same measure, in the same setting: the same measure for `O=S(=O)(O)CCC(F)(F)C(F)(F)C(F)(F)C(F)(F)F` [4:2 Fluorotelomer sulfonic acid]: greater than 100 µM; for `O=C([O-])C(F)(F)C(F)(F)C(F)(F)C(F)(F)C(F)(F)C(F)(F)C(F)(F)F.[NH4+]` [Ammonium_perfluorooctanoate]: greater than 100 µM.
With `OCC(F)(F)OC(F)(F)C(F)(F)OC(F)(F)C(F)(F)OC(F)(F)F` [Fluorinated_triethylene_glycol_monomethyl_ether], the POD vs vehicle was greater than 100 µM.
As for `CN(CCO)S(=O)(=O)C(F)(F)C(F)(F)C(F)(F)C(F)(F)C(F)(F)C(F)(F)C(F)(F)C(F)(F)F` [N-Methyl-N-(2-hydroxyethyl)perfluorooctanesulfonamide], the POD vs vehicle was greater than 100 µM.
Same read-out and setting: the same measure for `O=S(=O)(O)C(F)(F)C(F)(F)C(F)(F)C(F)(F)F` [Perfluorobutanesulfonic_acid]: greater than 100 µM.
`O=C(O)C(F)(F)C(F)(F)C(F)(F)C(F)(F)C(F)(F)C(F)(F)C(F)(F)C(F)(F)C(F)(F)C(F)(F)F` [Perfluoroundecanoic_acid] displayed a POD vs vehicle greater than 100 µM.

Another assay concerns 1434 (donor line of iPSC-derived cardiomyocytes). The assay is described as above. The conditions noted are these: exposure time: 90 min. The method in brief:
as §1
The molecule `NC(=O)C(F)(F)C(F)(F)C(F)(F)C(F)F` returned a POD vs vehicle greater than 100 µM.
Still for that read-out and setting: the same measure for `OCC(O)CC(F)(F)C(F)(F)C(F)(F)C(F)(F)C(F)(F)C(F)(F)C(F)(F)C(F)(F)F` (stereo not drawn) [1-(Perfluorofluorooctyl)propane-2,3-diol]: greater than 100 µM.
In turn, `CC(O)C(F)(F)C(F)(F)F` (stereo not drawn) [1-Pentafluoroethylethanol] yielded a POD vs vehicle greater than 100 µM.
Same read-out and setting: the same measure for `OCC(F)(F)C(F)(F)C(F)(F)C(F)F` [1H,1H,5H-Perfluoropentanol]: greater than 100 µM; for `O=S(=O)(OCC(F)(F)F)C(F)(F)C(F)(F)C(F)(F)C(F)(F)F` [2,2,2-Trifluoroethyl_perfluorobutanesulfonate]: greater than 100 µM; for `O=C(O)C(F)(F)C(F)(F)C(F)F` [2,2,3,3,4,4-Hexafluorobutanoic_acid]: greater than 100 µM.
Still for that read-out and setting: next, `NC(O)(C(F)(F)F)C(F)(F)F` [2-Aminohexafluoropropan-2-ol]: 85.7 µM.
On to `O=C(O)CCC(F)(F)C(F)(F)C(F)(F)C(F)(F)C(F)(F)F` [2H,2H,3H,3H-Perfluorooctanoic_acid], for which the POD vs vehicle amounted to 23.8 µM.
In the case of `O=C(O)C=C(C(F)(F)F)C(F)(F)F` [3,3-Bis(trifluoromethyl)-2-propenoic_acid], the POD vs vehicle is greater than 100 µM.
The molecule `O=C(O)C=CC(F)(C(F)(F)F)C(F)(F)F` [3-(Perfluoroisopropyl)-2-propenoic_acid] showed a POD vs vehicle greater than 100 µM.
As to `O=C(O)CCC(F)(F)C(F)(F)C(F)(F)C(F)(F)C(F)(F)C(F)(F)C(F)(F)F` [3-Perfluoroheptylpropanoic_acid], the POD vs vehicle turned out to be 21 µM.
Molecule `O=C(O)CCC(F)(F)C(F)(F)C(F)(F)F` [3:3 Fluorotelomer carboxylic acid] gave a POD vs vehicle greater than 100 µM.
`O=C(CC(=O)C(F)(F)C(F)(F)F)C(F)(F)F` [3H,3H-Perfluoro-2,4-hexanedione] came in with a POD vs vehicle of 22.6 µM.
As to `OCCC(F)(F)C(F)(F)C(F)(F)C(F)(F)F` [4:2 Fluorotelomer alcohol], the POD vs vehicle is greater than 100 µM.
The same measure, in the same setting: next, `O=S(=O)(O)CCC(F)(F)C(F)(F)C(F)(F)C(F)(F)F` [4:2 Fluorotelomer sulfonic acid]: greater than 100 µM; `O=C([O-])C(F)(F)C(F)(F)C(F)(F)C(F)(F)C(F)(F)C(F)(F)C(F)(F)F.[NH4+]` [Ammonium_perfluorooctanoate]: 46.1 µM.
As for `OCC(F)(F)OC(F)(F)C(F)(F)OC(F)(F)C(F)(F)OC(F)(F)F` [Fluorinated_triethylene_glycol_monomethyl_ether], the POD vs vehicle was determined as 25.3 µM.
With `CN(CCO)S(=O)(=O)C(F)(F)C(F)(F)C(F)(F)C(F)(F)C(F)(F)C(F)(F)C(F)(F)C(F)(F)F` [N-Methyl-N-(2-hydroxyethyl)perfluorooctanesulfonamide], the POD vs vehicle is 42.2 µM.
As for `O=S(=O)(O)C(F)(F)C(F)(F)C(F)(F)C(F)(F)F` [Perfluorobutanesulfonic_acid], the POD vs vehicle is greater than 100 µM.
As for `O=C(O)C(F)(F)C(F)(F)C(F)(F)C(F)(F)C(F)(F)C(F)(F)C(F)(F)C(F)(F)C(F)(F)C(F)(F)F` [Perfluoroundecanoic_acid], the POD vs vehicle is greater than 100 µM.

The test system of another assay is 1516 (donor line of iPSC-derived cardiomyocytes). The description is as above. The conditions noted are these: exposure time: 90 min. The gist of the method:
as §1
In the case of `NC(=O)C(F)(F)C(F)(F)C(F)(F)C(F)F`, the POD vs vehicle was greater than 100 µM.
On the same count and under the same terms, the same measure for `OCC(O)CC(F)(F)C(F)(F)C(F)(F)C(F)(F)C(F)(F)C(F)(F)C(F)(F)C(F)(F)F` (stereo not drawn) [1-(Perfluorofluorooctyl)propane-2,3-diol]: greater than 100 µM; for `CC(O)C(F)(F)C(F)(F)F` (stereo not drawn) [1-Pentafluoroethylethanol]: greater than 100 µM.
As for `OCC(F)(F)C(F)(F)C(F)(F)C(F)F` [1H,1H,5H-Perfluoropentanol], the POD vs vehicle is greater than 100 µM.
Regarding `O=S(=O)(OCC(F)(F)F)C(F)(F)C(F)(F)C(F)(F)C(F)(F)F` [2,2,2-Trifluoroethyl_perfluorobutanesulfonate], the POD vs vehicle was greater than 100 µM.
Consider `O=C(O)C(F)(F)C(F)(F)C(F)F` [2,2,3,3,4,4-Hexafluorobutanoic_acid], for which the POD vs vehicle is greater than 100 µM.
`NC(O)(C(F)(F)F)C(F)(F)F` [2-Aminohexafluoropropan-2-ol] showed a POD vs vehicle of 22.6 µM.
Turning to `O=C(O)CCC(F)(F)C(F)(F)C(F)(F)C(F)(F)C(F)(F)F` [2H,2H,3H,3H-Perfluorooctanoic_acid], the POD vs vehicle was found to be 21.1 µM.
